Results taken from article PMC5656322, “BAK1 is involved in AtRALF1-induced inhibition of root cell expansion” (PLoS Genetics, 2017).
Values joined by “and” are separate entries in the source; they are usually repeats but may differ in a detail not shown here. Equal values may be shown once. Where no end group is shown, it is not given here.

B1: Recombinant His-tagged AtRALF1 (peptide, UniProt Q9SRY3 72-120, looked up)
chain: ATTKYISYQSLKRNSVPCSRRGASYYNCQNGAQANPYSRGCSKIARCRS
modifications: ends and bridges not checked; also: His-tagged
notes: Rapid alkalinization factor 1 (AtRALF1), Arabidopsis thaliana; the active peptide (49 residues by the label RALF1(9–49)), cloned in pET-28b at NdeI/HindIII; printed molecular weight 7,631 Da; The printed mass of 7,631 Da would fit the 49-residue peptide with the His tag of pET-28b still on it (surmise); also called recombinant AtRALF1; R1
B2: Recombinant His-tagged HA-BAK1-ECD (domain or fragment, Arabidopsis thaliana, UniProt Q94F62 26-225, looked up)
chain: NAEGDALSALKNSLADPNKVLQSWDATLVTPCTWFHVTCNSDNSVTRVDLGNANLSGQLVMQLGQLPNLQYLELYSNNITGTIPEQLGNLTELVSLDLYLNNLSGPIPSTLGRLKKLRFLRLNNNSLSGEIPRSLTAVLTLQVLDLSNNPLTGDIPVNGSFSLFTPISFANTKLTPLPASPPPPISPTPPSPAGSNRITG
notes: BRI1-associated receptor kinase 1 (BAK1), Arabidopsis thaliana; extracellular domain; printed molecular weight 25,654.04 Da; HA-BAK1-ECD amplified from the pGADT7 construct, moved to pDEST17; also called BAK1-ED; not shown: HA, N-terminal, kept

Key:
[1] = tested on: Arabidopsis seedlings, primary root; test: Root growth inhibition assay, liquid medium, 24-well plates; assay type: in vivo, Arabidopsis thaliana; details: 10 μM, 2 days
Procedure: (A) and (B) Arabidopsis seedlings (2 days old) were treated with 10 μM AtRALF1 or water (H20) for 2 days. The values are the mean ± SD of at least 25 seedlings. Triple asterisks indicate P < 0.01 (Student’s t test); ns, not significant. (C) Four-day-old seedlings were transferred to media containing different concentrations of AtRALF1, and the primary root length was measured after 8 days of treatment. The data represent the mean value ± SD of 30 seedlings. […] Representative Arabidopsis seedlings after 8 days of treatment with AtRALF1 are shown below. Seedlings were arranged on plates after the treatment for imaging. Scale bars, 1 cm. (D) Two-day-old seedlings were treated with 10 μM AtRALF1 or water for 2 days, and root cell length was measured after 2 days of treatment. Cells from the root endodermis in the differentiation zone were measured. The values are the mean ± SD of approximately 150 cells. Triple asterisks indicate P < 0.01 (Student’s t test); ns, not significant.
Aliquots of 1 ml of medium containing seeds were distributed into 24-well plates. The peptides (10 μM) were added after 2 days, and the root length was measured 2 days after treatment. To maximize root growth, the seeds were germinated in vertical plates. […] The root length was measured 8 days after treatment unless stated otherwise. Control plants were grown under identical conditions in a peptide-free medium. Quantitative data were obtained as previously described. The experiments were repeated at least 3 times using independent biological replicates with similar results. The data from one representative experiment are shown. For cell length measurements, AtRALF1 peptide (10 μM) was added after 2 days of germination, and the cell length was measured after 2 days of treatment. The cell wall was stained with a 1 mg ml^-1 propidium iodide solution (Sigma) in the dark for 15 min and washed twice with water. Cells of the endodermis of the root differentiation zone were imaged and measured using confocal microscopy (Olympus FV1000). Approximately 30 plants from each genetic background and at least 5 cells per root were measured. The wavelengths for excitation and emission were 555 and 655 nm, respectively. Image processing was completed using the Olympus FluoView software.
Arabidopsis seedlings (2-days-old) were treated with 10 μM AtRALF1 or water (H20) for 2 days. The values are the mean ± SD of at least 25 seedlings. Triple asterisks indicate P < 0.01 (Student’s t test); ns, not significant. (PDF) Click here for additional data file.
Supplementary file pgen.1007053.s002.pdf: S2 Fig Loss-of-function bak1 mutants are sensitive to the inhibitory activity of AtRALF23/34 on root growth. Arabidopsis seedlings (2-day-old) were treated with 10 μM RALF1(9–49), RALF1(I6A), AtRALF1, AtRALF23 and AtRALF34 or water (H20) for 2 days. The values are the mean ± SD of at least 20 seedlings. […] (PDF) Click here for additional data file.

HA-BAK1-ECD = test: Co-immunoprecipitation in vitro; assay type: binding, Arabidopsis thaliana; details: 100 nM each protein, pH 6.3, overnight 4 °C, agarose anti-HA beads
Procedure: The purified recombinant proteins AtRALF1 and HA-BAK1-ECD and the synthetic peptides RALF1(9–49) and RALF1(I6A) were combined in 200 μl of interaction buffer pH 6.3 (100 mM NaCl; 1 mM PMSF; 0.5%Triton X; 2.7 mM KCl; 8 mM NaH2PO4; 2 mM KH2PO4) overnight at 4 °C. A 100-nM concentration of each protein was used. This solution was incubated with agarose anti-HA beads (EZview Red Anti-HA Affinity Gel, Sigma) for 30 min at 4 °C to immunoprecipitate the proteins, washed 5 times with interaction buffer, eluted in 1X SDS sample buffer containing 10% β-mercaptoethanol and applied to an SDS-PAGE gel. The immunoprecipitated HA-BAK1-ECD and co-immunoprecipitated AtRALF1 were analyzed by protein blotting as described. The primary and secondary antibodies used to detect AtRALF1 were anti-AtRALF1 (1:10,000, Celula B, Immunology Laboratory, UFRGS, Brazil) and goat anti-rabbit HRP-conjugated secondary antibody (1: 10,000, BioRad), respectively.

BAK1-GFP = test: Co-immunoprecipitation with microsomal fraction of N. benthamiana leaves expressing BAK1-GFP; assay type: binding, Arabidopsis thaliana; details: 600 nM peptide, 1 h, 4 °C, anti-GFP antibody
Procedure: This assay was performed as previously described with some modifications. The BAK1 coding region was amplified from Arabidopsis genomic cDNA using standard PCR with the primers BAK1 Fw and BAK1 Rv (S1 Table). To generate the p35S-BAK1:GFP plasmid, the fragment was cloned into the pENTR D-TOPO vector and later transferred to the pk7FWG2 vector [56]. Leaves from N. benthamiana plants were agroinfiltrated with p19 vector alone and p19 co-expressed with p35S-BAK1:GFP, as previously described. After 3 days, leaves were homogenized in extraction buffer [300 mM sucrose, 100 mM Tris-HCl pH 7.5, 25 mM EDTA, 25 mM NaF, 1 mM Na2MoO4, 1 mM PMSF, 1 mM DTT and protease inhibitor cocktail (Roche), pH 6.2 adjusted] and centrifuged at 1,000 g for 10 min at 4°C, and the supernatant was then centrifuged at 100,000 g for 50 min at 4°C to precipitate the microsomal pellet. The pellet was resuspended in the extraction buffer plus 0.5% Triton-X and incubated with 600 nM recombinant AtRALF1 or 600 nM RALF1(I6A) for 1 h at 4°C. The complexes were incubated with anti-GFP antibody (Santa Cruz Biotechnology) and Sepharose Beads plus protein A (Life Technologies) overnight at 4°C. […] The AtRALF1/BAK1-GFP complex bound to the beads was eluted with denaturing in 10 μl of 1X loading buffer (NuPAGE LDS buffer) at 95°C for 8 min, then analyzed by SDS-PAGE. The proteins were detected as previously described.

BAK1 = BAK1 phosphorylation assay, anti-phosphothreonine; assay type: in vivo, Arabidopsis thaliana; details: pBAK1:BAK1-HA roots, 20 min; AtRALF1 1, 2, 10 μM; BL 0.1 μM
Procedure: Transgenic plants pBAK1:BAK1-6xHA were grown in vertical plates for 10–15 days. The plants were treated with 0.1 μM BL, 2 μM RALF1(9–49), 1 μM, 2 μM or 10 μM AtRALF1 for 20 min. The roots were isolated, and the microsomal fractions were obtained as described above. The microsomal fractions were incubated with anti-HA beads (EZview Red Anti-HA Affinity Gel, Sigma) for 2 h at 4 °C to immunoprecipitate the BAK1 protein. The unbound materials were removed by washing 3 times. Proteins were separated by SDS/PAGE and further analyzed by protein blotting using anti-HA (Thermo Scientific), or anti-phosphothreonine (Novus Biologicals), or anti-phosphoserine (Novus Biologicals) antibodies.

[2] = tested on: Arabidopsis seedlings, primary root; test: Root growth inhibition assay, vertical plates; assay type: in vivo, Arabidopsis thaliana; details: bak1 mutants, 0 or 1 μM BL, 8 days
[3] = tested on: cytosolic Ca^2+ in Arabidopsis seedlings; details: BL; ref [38]; cited from earlier work
BAK1 gene = details: BL hormone treatment, Arabidopsis plants; ref [29]; cited from earlier work
Source text: It has been previously shown through microarray experiments that the treatment of Arabidopsis plants with AtRALF1 causes BAK1 gene induction by approximately 1.56-fold. Our data are consistent with that previous observation and add a new gene to the list of AtRALF1-inducible genes. […] The fact that AtRALF1 peptide and BL treatment both induce BAK1 gene expression provides further evidence that BAK1 ...

[4] = tested on: AtPRP3, AtHRGP2, CPD and DWF4 genes; details: cited from earlier work
Source text: AtRALF1-overexpressing plants are less sensitive to exogenous brassinosteroids (BRs). […] AtRALF1 also induces two cytochrome P450 monooxygenase genes related to the BR biosynthetic pathway: Constitutive Photomorphism and Dwarfism (CPD) and DWARF4 (DWF4). We exposed the bak1 mutants to the same concentration of AtRALF1 and evaluated the capacity to induce the AtPRP3, AtHRGP2, CPD and DWF4 genes. None of the AtRALF1-inducible genes were ...

[5] = tested on: plants overexpressing the AtRALF1 gene; details: plants overexpressing AtRALF1 treated with BL; ref [9]; cited from earlier work
Source text: AtRALF1-overexpressing plants are less sensitive to exogenous brassinosteroids (BRs). […] The expansin A5 gene (AtEXPA5), which is involved in the regulation of cell ...

fer4 mutant = details: ref [10]; cited from earlier work
Source text: Isothermal titration calorimetry has been used to estimate Kd values for plant ligand-receptor kinase pairs, IDA/ HAESA and AtRALF23/FERONIA are among them and our Kd values are consistent with these reported values. […] Previous studies have shown the possibility of additional sites for AtRALF1 binding. In cell suspension cultures of tomato, tobacco and alfalfa, the ^125I-azido-RALF peptide cross-linked to two p ...

[6] = molecular target: B2; test: ITC; VP ITC; 0.7 mM BAK1-ECD in the syringe (28 injections of 10 μl) into 0.03 mM peptide in the 1.4 ml cell; 15 mM HEPES pH 6.8; 25 °C; three independent experiments; details: both partners purified
[7] = molecular target: B1; test: as above; details: both partners purified

Molecule: RALF1(I6A): inactive AtRALF1 peptide which has an Ile replaced by an Ala in the conserved YISY domain (ATTKYASYQSLKRNSVPCSRRGASYYNCQNGAQANPYSRGCSKIARCRS; ends and bridges not checked; cysteine pairing not given here; UniProt Q9SRY3 72-120, looked up, variant I6A)
- activity of negative control peptides on root growth [1]: inactive
- co-immunoprecipitation with HA-BAK1-ECD (HA-BAK1-ECD): did not co-immunoprecipitate with BAK1
- co-immunoprecipitation with BAK1-GFP (BAK1-GFP): did not co-immunoprecipitate with BAK1-GFP

Molecule: CC(C)[C@H](C)[C@@H](O)[C@H](O)[C@@H](C)[C@H]1CC[C@H]2[C@@H]3COC(=O)[C@H]4C[C@H](O)[C@H](O)C[C@]4(C)[C@H]3CC[C@]12C [BL, brassinolide, reference compound]
- BAK1 phosphorylation in threonine residues (BAK1): increase resulting from the treatment of the seedlings with BL
- sensitivity of root growth to BL [2]: Reduced sensitivity
- mobilization of Ca^2+, dependence on BAK1 [3]: independent of BAK1
- BAK1 gene induction (BAK1 gene): promotes BAK1 gene induction in Arabidopsis plants
- AtRALF23 gene expression ([4]; Arabidopsis seedlings, BL, ref [4],[19]): down-regulated
- CPD and DWF4 gene expression ([4]; BL treatment, ref [9]): down-regulated by BL treatment
- AtEXPA5 expression ([4]; roots of treated seedlings, ref [16]–[18]): induced by BL
- hypocotyl elongation [5]: a minor increase in hypocotyl elongation
- number of lateral roots [5]: no change in the number of lateral roots
- root length [5]: no increase in root length

Molecule: ^125I-labeled AtRALF1: AtRALF1 radiolabeled with ^125I, earlier study [10] (ATTKYISYQSLKRNSVPCSRRGASYYNCQNGAQANPYSRGCSKIARCRS; ends and bridges not checked; also: radiolabeled with 125I; UniProt Q9SRY3 72-120, looked up)
- reduction of specific binding of 125I-labeled AtRALF1 (fer4 mutant): approximately 40%

Molecule: B1
- Kd [6]: 4.6 µM and 4.9 µM and 5.8 µM

Molecule: B2
- stoichiometry N [7]: 1.5 and 0.5 and 1.27
